Here are results for 34 compounds from patent publication US8791139B2, “Anthranilic diamide derivatives” (Bayer Cropscience AG, priority 2010, dated 2014).

The subject of data set [1] is caterpillars of the armyworm (Spodoptera frugiperda). Briefly: Spodoptera frugiperda test (SPODFR spray treatment). Type of data set: in vivo. As to conditions: 168 h, read-out: activity (caterpillars killed). Here is the method:
After 7 days, the effect in % is determined.

Data set [2] relates to larvae of the mustard beetle (Phaedon cochleariae). Briefly: Phaedon test (PHAECO spray treatment). As to conditions: 168 h, read-out: activity (beetle larvae killed).
Data set [3] in a line: logP by HPLC on reversed-phase columns (C18), EEC Directive 79/831 Annex V.A8. Type of data set: physicochemical. As to conditions: for logP: HPLC reversed-phase C18, acidic range pH 2.7. Here is the method: The logP values reported in the table above and in the Preparation Examples were determined in accordance with EEC Directive 79/831 Annex V.A8 by HPLC (High Performance Liquid Chromatography) on reversed-phase columns (C18), with the following methods:
The LC-MS determination in the acidic range is carried out at pH 2.7 using the mobile phases 0.1% aqueous formic acid and acetonitrile (contains 0.1% formic acid), linear gradient from 10% acetonitrile to 95% acetonitrile
Calibration was carried out using unbranched alkan-2-ones (having from 3 to 16 carbon atoms) with known logP values (the logP values were determined by the retention times using linear interpolation between two successive alkanones).

Setting [4] is: application rate 100 g/ha, after 7 days.
[5] abbreviates: reversed-phase HPLC column (C18), pH 2.7, HPLC reversed-phase C18, acidic range pH 2.7, 0.1% aqueous formic acid/acetonitrile, table of compounds of formula (I), read-out: log P.
Setting [6] is: reversed-phase HPLC column (C18), pH 2.7, HPLC reversed-phase C18, acidic range pH 2.7, Preparation Examples (intermediates), read-out: logP.
The mark [7] stands for this setting: Preparation Examples (intermediates).

Values joined by “and” are separate entries in the source; they are usually repeats but may differ in a detail not shown here. Equal values may be shown once. Read-outs that look alike come from different tables or passages of the source.

Turning to `CNC(=O)c1cc(Cl)cc(C)c1NC(=O)c1cc(C2=NOC(c3cc(Cl)cc(Cl)c3)(C(F)(F)F)C2)nn1-c1ncccc1Cl` (stereo not shown) [Example 1], the pest or weed control at 100 g/ha in data set [1] came to 100%; in data set [2], 83%.

With `Cc1cc(Br)cc(C(=O)NC(C)C)c1NC(=O)c1cc(C(=O)Nc2ccc(C(F)(F)F)cc2)nn1-c1ncccc1Cl` [Example 3], the pest or weed control at 100 g/ha in data set [2] came out at 100%. In data set [3] (pH 2.7, log P), the chromatographic logP turned out to be 4.02.

With `Cc1cc(Cl)cc(C(=O)NC(C)C)c1NC(=O)c1cc(C(=O)Nc2ccc(C(F)(F)F)cc2)nn1-c1ncccc1Cl` [Example 4], the pest or weed control at 100 g/ha in data set [1] was 83%. Besides, in data set [3] (pH 2.7, log P), the chromatographic logP amounted to 3.96.

Take `CNC(=O)c1cc(C#N)cc(C)c1NC(=O)c1cc(C#Cc2ccc(OC(F)(F)F)cc2)nn1-c1ncccc1Cl` [Example 13]: in data set [2], the pest or weed control at 100 g/ha stood at 100%. In addition, the chromatographic logP in data set [3] (pH 2.7, log P) is 3.88.

Turning to `Cc1cc(Cl)cc(C(=O)NC(C)C)c1NC(=O)c1cc(CNS(=O)(=O)c2ccc(C(F)(F)F)cc2)nn1-c1ncccc1Cl` [Example 46], in data set [1], the pest or weed control at 100 g/ha was 83%. The same compound returned a chromatographic logP in data set [3] (pH 2.7, log P) of 3.47.

As to `Cc1cc(Cl)cc(C(=O)NC(C)C)c1NC(=O)c1cc(CNS(=O)(=O)Cc2ccc(C(F)(F)F)cc2C(F)(F)F)nn1-c1ncccc1Cl` [Example 52], the pest or weed control at 100 g/ha in data set [1] (setting [4]) came out at 83%. Moreover, the chromatographic logP in data set [3] (setting [5]) came to 3.92.

Turning to `Cc1cc(Cl)cc(C(=O)NC(C)C)c1NC(=O)c1cc(CN(C)S(=O)(=O)c2cc(C(F)(F)F)cc(C(F)(F)F)c2)nn1-c1ncccc1Cl` [Example 55], the pest or weed control at 100 g/ha in data set [1] (setting [4]) stood at 100%. In addition, in data set [3] (setting [5]), the chromatographic logP turned out to be 4.5.

With `Cc1cc(Cl)cc(C(=O)NC(C)C)c1NC(=O)c1cc(CN(C)S(=O)(=O)Cc2cc(C(F)(F)F)cc(C(F)(F)F)c2)nn1-c1ncccc1Cl` [Example 56], the pest or weed control at 100 g/ha in data set [1] (setting [4]) stood at 100%. The chromatographic logP in data set [3] (setting [5]) amounted to 4.37.

Regarding `Cc1cc(Cl)cc(C(=O)NC2CC2)c1NC(=O)c1cc(CN(Cc2cc(C(F)(F)F)cc(C(F)(F)F)c2)S(C)(=O)=O)nn1-c1ncccc1Cl` [Example 59], the pest or weed control at 100 g/ha in data set [1] (setting [4]) is 100%. Moreover, the chromatographic logP in data set [3] (setting [5]) was found to be 4.05.

Regarding `O=C(Cn1nnc(C(F)(F)F)n1)c1cc(C(=O)O)n(-c2ncccc2Cl)n1` [Example No. III-4, 1-(3-chloropyridin-2-yl)-3-{[5-(trifluoromethyl)-2H-tetrazol-2-yl]acetyl}-1H-pyrazole-5-carboxylic acid], the chromatographic logP in data set [3] (setting [6]) was 2.25.

Take `O=C(O)c1cc(N2CCN(c3cc(C(F)(F)F)cc(C(F)(F)F)c3)C2=O)nn1-c1ncccc1Cl` [Example No. III-5, 3-{3-[3,5-bis(trifluoromethyl)phenyl]-2-oxoimidazolidin-1-yl}-1-(3-chloropyridin-2-yl)-1H-pyrazole-5-carboxylic acid]: the chromatographic logP in data set [3] (setting [6]) is 3.47.

On to `O=C(c1ccc(C(F)(F)F)nc1)c1cc(C(=O)O)n(-c2ncccc2Cl)n1` [Example No. III-6, 1-(3-chloropyridin-2-yl)-3-{[6-(trifluoromethyl)pyridin-3-yl]carbonyl}-1H-pyrazole-5-carboxylic acid], for which, in data set [3] (setting [6]), the chromatographic logP stood at 2.33.

As to `O=C(Nc1ccc(C(F)(F)F)cc1)c1cc(C(=O)O)n(-c2ncccc2Cl)n1` [Example No. III-8], the logP (commonly a log measure of how a compound divides between an organic and an aqueous phase) in data set [3] (setting [7]) amounted to 2.67.

As for `O=C(O)c1cc(Nc2ccc(C(F)(F)F)cn2)nn1-c1ncccc1Cl` [Example No. III-10, 1-(3-Chloropyridin-2-yl)-3-{[5-(trifluoromethyl)pyridin-2-yl]amino}-1H-pyrazole-5-carboxylic acid], the chromatographic logP in data set [3] (setting [6]) was 2.79.

In the case of `CCOC(=O)c1cc(C(=O)Cn2nnc(C(F)(F)F)n2)nn1-c1ncccc1Cl` [Example No. IX, ethyl 1-(3-chloropyridin-2-yl)-3-{[5-(trifluoromethyl)-2H-tetrazol-2-yl]acetyl}-1H-pyrazole-5-carboxylate], the chromatographic logP in data set [3] (setting [6]) amounted to 3.5.

`COC(=O)c1cc(C(=O)Nc2ccc(C(F)(F)F)cc2)nn1-c1ncccc1Cl` [Example No. IX-e, methyl 1-(3-chloropyridin-2-yl)-3-{[4-(trifluoromethyl)phenyl]carbamoyl}-1H-pyrazole-5-carboxylate]: in data set [3] (setting [6]), the chromatographic logP turned out to be 3.54.

As to `COC(=O)c1cc(CN(C)S(=O)(=O)Cc2cc(C(F)(F)F)cc(C(F)(F)F)c2)nn1-c1ncccc1Cl` [Example No. V, methyl 3-{[{[3,5-bis(trifluoromethyl)benzyl]sulphonyl}(methyl)amino]methyl}-1-(3-chloropyridin-2-yl)-1H-pyrazole-5-carboxylate], in data set [3] (setting [6]), the chromatographic logP is 3.83.

For `COC(=O)c1cc(C#Cc2ccc(OC(F)(F)F)cc2)nn1-c1ncccc1Cl` [Example No. VII, methyl 1-(3-chloropyridin-2-yl)-3-{[4-(trifluoromethoxy)phenyl]ethinyl}-1H-pyrazole-5-carboxylate], the log partition coefficient (logP) in data set [3] (setting [7]) was 4.46.

In the case of `CCOC(=O)c1cc(C(C)=O)nn1-c1ncccc1Cl` [Example No. VII-a, ethyl 3-acetyl-1-(3-chloropyridin-2-yl)-1H-pyrazole-5-carboxylate], the chromatographic logP in data set [3] (setting [6]) was 2.31.

On to `CCOC(=O)c1cc(N2CCN(c3cc(C(F)(F)F)cc(C(F)(F)F)c3)C2=O)nn1-c1ncccc1Cl` [Example No. VII-b, ethyl 3-{3-[3,5-bis(trifluoromethyl)phenyl]-2-oxoimidazolidin-1-yl}-1-(3-chloropyridin-2-yl)-1H-pyrazole-5-carboxylate], for which, in data set [3] (setting [6]), the chromatographic logP came to 4.82.

With `COC(=O)c1cc(Cc2ccc(C(F)(F)F)nc2)nn1-c1ncccc1Cl` [Example No. VII-c, methyl 1-(3-chloropyridin-2-yl)-3-{[6-(trifluoromethyl)pyridin-3-yl]methyl}-1H-pyrazole-5-carboxylate], the chromatographic logP in data set [3] (setting [6]) worked out at 2.86.

As to `COC(=O)c1cc(C=O)nn1-c1ncccc1Cl` [Example No. VII-e, methyl 1-(3-chloropyridin-2-yl)-3-formyl-1H-pyrazole-5-carboxylate], the chromatographic logP in data set [3] (setting [6]) was 1.82.

In the case of `CCOC(=O)c1cc(C(=O)C(=O)c2ccc(Cl)cc2Cl)nn1-c1ncccc1Cl` [Example No. VIII, ethyl 1-(3-chloropyridin-2-yl)-3-[(2,4-dichlorophenyl)(oxo)acetyl]-1H-pyrazole-5-carboxylate], the chromatographic logP in data set [3] (setting [6]) came out at 4.29.

On to `CCOC(=O)c1cc(C(=O)CBr)nn1-c1ncccc1Cl` [Example No. VIII-a, ethyl 3-(bromoacetyl)-1-(3-chloropyridin-2-yl)-1H-pyrazole-5-carboxylate], for which, in data set [3] (setting [6]), the chromatographic logP is 2.87.

Take `COC(=O)c1cc(C(=O)c2ccc(C(F)(F)F)nc2)nn1-c1ncccc1Cl` [Example No. VIII-c, methyl 1-(3-chloropyridin-2-yl)-3-{[6-(trifluoromethyl)pyridin-3-yl]carbonyl}-1H-pyrazole-5-carboxylate]: the chromatographic logP in data set [3] (setting [6]) stood at 3.33.

Regarding `COC(=O)c1cc(C(=O)O)nn1-c1ncccc1Cl` [Example No. VIII-e, 1-(3-chloropyridin-2-yl)-5-(methoxycarbonyl)-1H-pyrazole-3-carboxylic acid], in data set [3] (setting [6]), the chromatographic logP came out at 1.38.

For the compound `COC(=O)c1cc(C2CO2)nn1-c1ncccc1Cl` (stereo not shown) [Example No. XI, Methyl 1-(3-chloropyridin-2-yl)-3-(oxiran-2-yl)-1H-pyrazole-5-carboxylate], the chromatographic logP in data set [3] (setting [6]) was determined as 1.67.

On to `COC(=O)c1cc(N)nn1-c1ncccc1Cl` [Example No. XIX, Methyl 3-amino-1-(3-chloropyridin-2-yl)-1H-pyrazole-5-carboxylate], for which the chromatographic logP in data set [3] (setting [6]) was found to be 1.09.

`O=[N+]([O-])c1ccn(-c2ncccc2Cl)n1` [Example No. XVI, 3-Chloro-2-(3-nitro-1H-pyrazol-1-yl)pyridine]: in data set [3] (setting [6]), the chromatographic logP was 1.83.

Turning to `O=C(O)c1cc([N+](=O)[O-])nn1-c1ncccc1Cl` [Example No. XVII, 1-(3-Chloropyridin-2-yl)-3-nitro-1H-pyrazole-5-carboxylic acid], the chromatographic logP in data set [3] (setting [6]) was 0.9.

On to `COC(=O)c1cc([N+](=O)[O-])nn1-c1ncccc1Cl` [Example No. XVIII, Methyl 1-(3-chloropyridin-2-yl)-3-nitro-1H-pyrazole-5-carboxylate], for which, in data set [3] (setting [6]), the chromatographic logP was 2.18.

In the case of `COC(=O)c1cc(Nc2ccc(C(F)(F)F)cn2)nn1-c1ncccc1Cl` [Example No. XX, Methyl 1-(3-chloropyridin-2-yl)-3-{[5-(trifluoromethyl)pyridin-2-yl]amino}-1H-pyrazole-5-carboxylate], in data set [3] (setting [6]), the chromatographic logP amounted to 3.14.

On to “Methyl 1-(3-chloropyridin-2-yl)-3-{1-hydroxy-2-[5-(trifluoromethyl)-2H-tetrazol-2-yl]ethyl}-1H-pyrazole-5-carboxylate/methyl 1-(3-chloropyridin-2-yl)-3-{1-hydroxy-2-[5-(trifluoromethyl)-1H-tetrazol-1-yl]ethyl}-1H-pyrazole-5-carboxylate [Example No. XII]”, for which the logP in data set [3] (setting [7]) is 2.64 and 2.68.

With “Methyl 1-(3-chloropyridin-2-yl)-3-{(E)-2-[5-(trifluoromethyl)-2H-tetrazol-2-yl]vinyl}-1H-pyrazole-5-carboxylate/methyl 1-(3-chloropyridin-2-yl)-3-{(E)-2-[5-(trifluoromethyl)-1H-tetrazol-1-yl]vinyl}-1H-pyrazole-5-carboxylate [Example No. XIII]”, the logP in data set [3] (setting [7]) is 3.37 and 3.49.
